Reference: US8058243B2, “Method for treating a brain cancer with ifenprodil” (HSC Research and Development Limited Partnership, priority 2006, dated 2011)
Read-outs that look alike come from different tables or passages of the source.

Tested on: murine neural precursor cells (neurosphere cultures)
Experiment: HTS of LOPAC library against secondary neurosphere cultures, MTT proliferation assay at 3 μM, day 7 (z score, P value)
Format: cell-based, mouse
[1] = yes/no: significantly inhibited neurosphere proliferation (P<0.01) in primary screen
[2] = LOPAC primary screen, neurosphere MTT proliferation, 3 μM, day 7
[3] = yes = significantly inhibited neurosphere proliferation (P<0.01) in the primary screen
[4] = yes/no: significantly inhibited neurosphere proliferation in the primary screen
[5] = primary LOPAC screen, 3 μM, MTT, neurosphere proliferation
[6] = LOPAC library screen at 3 μM, secondary neurosphere cultures, MTT
[7] = yes/no: significantly inhibited neurosphere proliferation (P<0.01) in the primary screen
[8] = LOPAC library screen, 3 μM, MTT, secondary neurosphere cultures, day 7

## Oc1cc(-c2ccccc2)nc2nc(Cl)ccc12 [7-Chloro-4-hydroxy-2-phenyl-1,8-naphthyridine]
168 h, 3 µM
  Z Score: −0.401
  Z score: −0.401
[1]
  Activity: no

## O=C(O)c1cc(O)c2ccc(Cl)cc2n1 [7-Chlorokynurenic acid]
  Z Score: 1.241
LOPAC screen, neurosphere MTT proliferation, 3 μM, day 7
  Z score: 1.241
[1]
  Activity: no

## O=[N+]([O-])c1cccc2cn[nH]c12 [7-Nitroindazole (34), 7-Nitroindazole, reference compound]
  Z Score: −1.349
[2]
  Z score: −1.349
[3]
  Activity: no

## Cn1c(=O)c2c(nc(C=Cc3cccc(Cl)c3)n2C)n(C)c1=O [8-(3-Chlorostyryl)caffeine]
168 h, 3 µM
  Z Score: −1.214
  Z score: −1.214
[1]
  Activity: no

## Cn1c(=O)c2[nH]c(-c3ccc(S(=O)(=O)O)cc3)nc2n(C)c1=O [8-(p-Sulfophenyl)theophylline]
168 h, 3 µM
  Z Score: 1.047
  Z score: 1.047
[4]
  Activity: no

## Nc1nc2c(nc(Br)n2[C@@H]2O[C@@H]3COP(=O)([O-])O[C@H]3[C@H]2O)c(=O)[nH]1.[Na+] [8-Bromo-cGMP sodium]
  Z Score: −1.005
[5]
  Z score: −1.005
[4]
  Activity: no

## Cn1c(=O)c2[nH]c(C3CCCC3)nc2n(C)c1=O [8-Cyclopentyl-1,3-dimethylxanthine]
168 h, 3 µM
  Z Score: −0.1248
  Z score: −0.125
[1]
  Activity: no

## CCCn1c(=O)c2[nH]c(C3CCCC3)nc2n(CCC)c1=O [8-Cyclopentyl-1,3-dipropylxanthine]
168 h, 3 µM
  Z Score: −0.07021
  Z score: −0.070
[1]
  Activity: no

## COCc1nc2c([nH]1)c(=O)n(C)c(=O)n2CC(C)C [8-Methoxymethyl-3-isobutyl-1-methylxanthine]
[6]
  Z Score: −0.3403
[2]
  Z score: −0.340
[3]
  Activity: no

## Cl.Nc1c2c(nc3ccccc13)CCCC2 [9-Amino-1,2,3,4-tetrahydroacridine hydrochloride]
  Activity: no
  Z Score: −1.021
  Z score: −1.021

## Nc1ncnc2c1ncn2C1CCCC1 [9-cyclopentyladenine]
168 h, 3 µM
  Z Score: 0.4988
  Z score: 0.499
[1]
  Activity: no

## CCN(CC)C(C)C(=O)N1c2ccccc2Sc2ccccc21.Cl (stereo not drawn) [10-(alpha-Diethylaminopropionyl)-phenothiazine hydrochloride]
  Z Score: −1.545

## CCN(CC)C(C)C(=O)N1c2ccccc2Sc2ccccc21 (stereo not drawn) [10-(alpha-Diethylaminopropionyl)-phenothiazine]
[2]
  Z score: −1.545
[7]
  Activity: no

## CC1=C(/C=C/C(C)=C/C=C/C(C)=C\C(=O)O)C(C)(C)CCC1 [13-cis-retinoic acid]
[8]
  Z Score: −1.469
[2]
  Z score: −1.469
[7]
  Activity: no

## CC(=O)[C@@]1(O)CC[C@H]2[C@@H]3CCC4=CC(=O)CC[C@]4(C)[C@H]3CC[C@@]21C [17alpha-hydroxyprogesterone]
  Z Score: −0.5783
[2]
  Z score: −0.578
[1]
  Activity: no

## CC(N)=NCc1cccc(CN)c1.Cl.Cl [1400W dihydrochloride]
  Z Score: −0.2749
[5]
  Z score: −0.275
[4]
  Activity: no

## CN1CCc2cc3c(cc2[C@H]1[C@@H]1OC(=O)c2c1ccc1c2OCO1)OCO3 [(+)-Bicuculline]
  Z Score: −0.1989
[2]
  Z score: −0.199
[7]
  Activity: no

## CC(C)C[C@H]1C(=O)N2CCC[C@H]2[C@]2(O)O[C@](NC(=O)[C@@H]3C=C4c5cccc6[nH]c(Br)c(c56)C[C@H]4N(C)C3)(C(C)C)C(=O)N12.CS(=O)(=O)O [(+)-Bromocriptine methanesulfonate]
  Z Score: 0.02792
[5]
  Z score: 0.028
[4]
  Activity: no

## CC[C@@H]1C(=O)OC[C@@H]1Cc1cncn1C.Cl [(+)-Pilocarpine hydrochloride]
[8]
  Z Score: −1.548
[2]
  Z score: −1.548
[3]
  Activity: no

## N[C@@H](Cn1oc(=O)[nH]c1=O)C(=O)O [(+)-Quisqualic acid]
  Z Score: 0.4361
[2]
  Z score: 0.436
yes/no: significantly inhibited neurosphere proliferation in primary screen
  Activity: no

## C[C@@H]1OC[C@H](C[N+](C)(C)C)O1.[I-] [(+)-cis-Dioxolane iodide]
  Z Score: −3.402
[2]
  Z score: −3.402
[7]
  Activity: yes

## NC(CP(=O)(O)O)C(=O)O (stereo not drawn) [(B1)-2-Amino-3-phosphonopropionic acid]
  Z Score: 1.25

## NC(CCP(=O)(O)O)C(=O)O (stereo not drawn) [(B1)-2-Amino-4-phosphonobutyric acid]
  Z Score: 1.893

## NC(CCCP(=O)(O)O)C(=O)O (stereo not drawn) [(B1)-2-Amino-5-phosphonopentanoic acid]
  Z Score: −1.045

## NC(CCCCCP(=O)(O)O)C(=O)O (stereo not drawn) [(B1)-2-Amino-7-phosphonoheptanoic acid]
  Z Score: −1.02

## Br.Oc1cc2c(c(Cl)c1O)CCNCC2c1ccccc1 (stereo not drawn) [(B1)-6-Chloro-PB hydrobromide]
  Z Score: −2.267

## Br.CCCN(CCC)C1CCc2ccc(O)cc2C1 (stereo not drawn) [(B1)-7-Hydroxy-DPAT hydrobromide]
  Z Score: −11.1

## Br.CCCN(CCC)C1CCc2cccc(O)c2C1 (stereo not drawn) [(B1)-8-Hydroxy-DPAT hydrobromide]
  Z Score: 0.6561

## Br.Cc1o[nH]c(=O)c1CC(N)C(=O)O (stereo not drawn) [(B1)-AMPA hydrobromide]
  Z Score: −0.4272

## CC(C)NCC(O)COc1ccc(CC(N)=O)cc1 (stereo not drawn) [(B1)-Atenolol]
[6]
  Z Score: −0.6583

## NCC(CC(=O)O)c1ccc(Cl)cc1 (stereo not drawn) [(B1)-Baclofen]
  Z Score: −1.069

## COC(=O)C1=C(C)NC(C)=C([N+](=O)[O-])C1c1ccccc1C(F)(F)F (stereo not drawn) [(B1)-Bay K 8644]
  Z Score: 0.8527

## CN(C)CCC(c1ccc(Br)cc1)c1ccccn1.O=C(O)/C=C\C(=O)O (stereo not drawn) [(B1)-Brompheniramine maleate]
  Z Score: −3.53

## CC(C)(C)[C@]1(O)CCN2C[C@H]3c4ccccc4CCc4cccc(c43)[C@@H]2C1.Cl [(B1)-Butaclamol hydrochloride]
  Z Score: −5.934

## CC(C)(C)NCC(O)COc1cccc2[nH]c(=O)[nH]c12.Cl (stereo not drawn) [(B1)-CGP-12177A hydrochloride]
  Z Score: −1.611

## O=C(O)C1CN(CCCP(=O)(O)O)CCN1 (stereo not drawn) [(B1)-CPP]
  Z Score: 0.3213

## Br.C=CCN1CCc2c(cc(O)c(O)c2Cl)C(c2ccccc2)C1 (stereo not drawn) [(B1)-Chloro-APB hydrobromide]
  Z Score: −0.111

## CN(C)CCC(c1ccc(Cl)cc1)c1ccccn1.O=C(O)/C=C\C(=O)O (stereo not drawn) [(B1)-Chlorpheniramine maleate]
  Z Score: −2.116

## COc1cc(CC(C)N)c(OC)cc1I.Cl (stereo not drawn) [(B1)-DOI hydrochloride]
  Z Score: −1.345

## CNCC(O)c1ccc(O)c(O)c1.Cl (stereo not drawn) [(B1)-Epinephrine hydrochloride]
[6]
  Z Score: −0.3279

## NC1CCN(O)C1=O (stereo not drawn) [(B1)-HA-966]
  Z Score: 1.157

## N[C@H](C(=O)O)c1cc(O)no1 [(B1)-Ibotenic acid]
  Z Score: −1.65

## CC(C)Cc1ccc(C(C)C(=O)O)cc1 (stereo not drawn) [(B1)-Ibuprofen]
  Z Score: −0.2623

## CC(C)NCC(O)c1ccc(O)c(O)c1.Cl (stereo not drawn) [(B1)-Isoproterenol hydrochloride]
  Z Score: −0.5717

## COc1ccc(CCN(C)CCCC(C#N)(c2cc(OC)c(OC)c(OC)c2)C(C)C)cc1OC.Cl (stereo not drawn) [(B1)-Methoxyverapamil hydrochloride]
  Z Score: −1.407

## COCCc1ccc(OCC(O)CNC(C)C)cc1.O=C(O)C(O)C(O)C(=O)O (stereo not drawn) [(B1)-Metoprolol (+)-tartrate]
  Z Score: −0.2689

## C[C@@H]1O[C@H](C[N+](C)(C)C)C[C@H]1O.[Cl-] [(B1)-Muscarine chloride]
  Z Score: −1.905

## O=C(O)C1CCCNC1 (stereo not drawn) [(B1)-Nipecotic acid]
  Z Score: −0.7215

## NC[C@H](O)c1ccc(O)c(O)c1.O=C(O)C(O)C(O)C(=O)O [(B1)-Norepinephrine (+)bitartrate]
  Z Score: 0.09903

## COc1cc(C(O)CN)ccc1O.Cl (stereo not drawn) [(B1)-Normetanephrine hydrochloride]
[8]
  Z Score: −1.796

## CN1CCN(C2Cc3ccccc3Sc3ccc(Cl)cc32)CC1.O=C(O)/C=C\C(=O)O (stereo not drawn) [(B1)-Octoclothepin maleate]
  Z Score: 1.473

## Cl.NCC(O)c1ccc(O)cc1 (stereo not drawn) [(B1)-Octopamine hydrochloride]
  Z Score: −1.567

## CCCN1CCO[C@@H]2c3cc(O)ccc3OC[C@H]21.Cl [(B1)-PD 128,907 hydrochloride]
  Z Score: 1.164

## CCCN(CCc1ccccc1)C1CCc2c(O)cccc2C1.Cl (stereo not drawn) [(B1)-PPHT hydrochloride]
  Z Score: −1.915

## CC(C)NCC(O)COc1cccc2ccccc12.Cl (stereo not drawn) [(B1)-Propranolol hydrochloride]
LOPAC library screen, 3 μM, MTT, neurosphere cultures
  Z Score: 0.3567

## Br.C=CCN1CCc2cc(O)c(O)cc2C(c2ccccc2)C1 (stereo not drawn) [(B1)-SKF 38393, N-allyl-, hydrobromide]
  Z Score: −1.59

## Cl.Oc1cc2c(cc1O)C(c1ccccc1)CNCC2 (stereo not drawn) [(B1)-SKF-38393 hydrochloride]
  Z Score: 1.28

## CC(C)NCC(O)c1ccc(NS(C)(=O)=O)cc1.Cl (stereo not drawn) [(B1)-Sotalol hydrochloride]
  Z Score: −0.813

## CCN1CCCC1CNC(=O)c1cc(S(N)(=O)=O)ccc1OC (stereo not drawn) [(B1)-Sulpiride]
  Z Score: −0.2841

## CNCC(O)c1ccc(O)cc1 (stereo not drawn) [(B1)-Synephrine]
  Z Score: −0.1488

## O=C1c2c(O)cc(O)cc2OC(c2ccc(O)c(O)c2)C1O (stereo not drawn) [(B1)-Taxifolin]
  Z Score: 1.321

## O=C1CCC(N2C(=O)c3ccccc3C2=O)C(=O)N1 (stereo not drawn) [(B1)-Thalidomide]
  Z Score: 0.521

## COc1cc(C(O)C(=O)O)ccc1O (stereo not drawn) [(B1)-Vanillylmandelic acid]
  Z Score: −1.811

## COc1ccc(CCN(C)CCCC(C#N)(c2ccc(OC)c(OC)c2)C(C)C)cc1OC.Cl (stereo not drawn) [(B1)-Verapamil hydrochloride]
  Z Score: 1.008

## Cl.OC1CCCCC1N1CCC(c2ccccc2)CC1 (stereo not drawn) [(B1)-Vesamicol hydrochloride]
  Z Score: −1.967

## O=C(O)CCCCC1CCSS1 (stereo not drawn) [(B1)-alpha-Lipoic Acid]
  Z Score: 0.3418
